The values that follow come from paper PMC11013424, “Evaluation of the Lipophilicity of Angularly Condensed Diquino- and Quinonaphthothiazines as Potential Candidates for New Drugs” (Molecules, 2024).

In the first data set the test system is IFNβ expression and IFNβ-dependent downstream genes and proteins.
Experiment: not given
Conditions: cited from earlier work. Also noted: method as in doi:10.1016/j.molstruc.2023.135700, PMID 30981160, doi:10.1016/j.molstruc.2015.06.046, PMID 25750501, doi:10.1016/j.molstruc.2023.136856.
“6-chloro-ethylureidoethyldiquinothiazine”: the “inhibition of IFNβ expression and IFNβ-dependent downstream genes and proteins” value was “inhibitory activity”.

Test system in the next data set: not given
Experiment: not given
Conditions: cited from earlier work. Also noted: method as in doi:10.1016/j.molstruc.2023.136856.
`c1ccc2nc3c(cc2c1)Sc1ccc2cccnc2c1N3` [Compound 11]: the lipid peroxidation effect entry is “strong”.
As to `c1ccc2nc3c(cc2c1)Sc1c(cnc2ccccc12)N3` [Compound 1, 7H-diquino[3,2-b;3′,4′-e]thiazine], the lipid peroxidation effect result is listed as “strong”.
In the case of `c1ccc2nc3c(cc2c1)Sc1ccc2ncccc2c1N3` [Compound 9], the lipid peroxidation effect result is “strong”.

Test system in the next data set: not given
Experiment: not given
On the set-up: method as in doi:10.1016/j.molstruc.2023.135700, PMID 30981160, doi:10.1016/j.molstruc.2015.06.046, PMID 25750501, doi:10.1016/j.molstruc.2023.136856. Conditions: cited from earlier work. The source holds these as a separate data set.
Regarding “6-chloro-ethylureidoethyldiquinothiazine”, the “activity in in vivo models” value was “suppressive and anti-inflammatory activities”.

Test system in another data set: not given
Experiment: not given
On the set-up: method as in doi:10.1016/j.molstruc.2023.136856. The settings on record: cited from earlier work. This is another data set of the same source.
Turning to `c1ccc2nc3c(cc2c1)Sc1ccc2cccnc2c1N3` [Compound 11], the “free radical scavenging effect” value is given as “strong”.
`c1ccc2nc3c(cc2c1)Sc1c(cnc2ccccc12)N3` [Compound 1, 7H-diquino[3,2-b;3′,4′-e]thiazine]: the “free radical scavenging effect” value was “strong”.
For the molecule `c1ccc2nc3c(cc2c1)Sc1ccc2ncccc2c1N3` [Compound 9], the “free radical scavenging effect” value is listed as “strong”.

Another data set has as its system alpha-amylase.
Experiment: not given
On the set-up: method as in doi:10.1016/j.molstruc.2023.136856. Conditions: cited from earlier work.
As for `c1ccc2nc3c(cc2c1)Sc1ccc2cccnc2c1N3` [Compound 11], the alpha-amylase activity inhibition result was “inhibited”.
In the case of `c1ccc2nc3c(cc2c1)Sc1c(cnc2ccccc12)N3` [Compound 1, 7H-diquino[3,2-b;3′,4′-e]thiazine], the alpha-amylase activity inhibition result is given as “inhibited”.
As for `c1ccc2nc3c(cc2c1)Sc1ccc2ncccc2c1N3` [Compound 9], the alpha-amylase activity inhibition result is given as “inhibited”.

Test system in another data set: not listed separately
Nature of the data set: RP-TLC determination of lipophilicity (RM0, logPTLC).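 Further: silica gel 60 RP-18 F254S plates, TRIS buffer of ionic strength 0.2 M, detection under UV at 254 nm, RF averaged over three or more runs, C in % v/v.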 The settings on record: RP-18 plate, acetone/TRIS buffer pH 7.4, extrapolated to zero acetone.
Description: RP-TLC was carried out on a silica gel 60 RP-18 F254S 10 cm × 10 cm RP-TLC plate (Merck, Darmstad, Germany). The mobile phase was acetone and an aqueous TRIS (tris(hydroxymethyl)-aminomethane) buffer pH = 7.4 (ionic strength 0.2 M) to meet physiological conditions. […] Angularly condensed diquino- and quinonaphthothiazinethiazines (1–21) and the standards I–V were dissolved in ethanol (2.0 mg/mL). […] Before developing the plates, the chromatographic chambers were saturated with the mobile phase for 0.5 h. After developing the plates and drying in a stream of air, the chromatograms were observed under UV light at λ = 254 nm. At least, three chromatograms were developed for each soluble–solvent combination, and the RF values were averaged. […] The RM0 values were obtained by extrapolation to a zero acetone concentration using the equation RM = RM0 + bC, where C is the concentration (%, v/v) of acetone in the mobile phase.
As to `Clc1ccc(C(c2ccc(Cl)cc2)C(Cl)(Cl)Cl)cc1` [Standard V, p,p’-DDT, reference compound], the RM0 is recorded as 4.69.
On the same count and under the same terms, as for `C=CCN1c2nc3ccccc3cc2Sc2ccc3ccccc3c21` [Compound 20, 14-allylquinonaphthothiazine], the figure is 4.34; as for `O=C(O)c1ccccc1` [Standard II, benzoic acid, reference compound], 1.16.
The same measure, in the same setting: the value for `C=CCN1c2cnc3ccccc3c2Sc2cc3ccccc3nc21` [Compound 3] was 4.30; that for `C=CCN1c2ccc3ncccc3c2Sc2cc3ccccc3nc21` [Compound 7] was 4.46; that for `CN1c2nc3ccccc3cc2Sc2ccc3cccnc3c21` [Compound 12] was 4.21.
The same measure, in the same setting: as for `C#CCN1c2cnc3ccccc3c2Sc2cc3ccccc3nc21` [Compound 4], the figure is 3.35.
`CC(=O)Nc1ccccc1` [Standard I, acetanilide, reference compound]: the RM0 is 0.78.
The same measure, in the same setting: as for `c1ccc2nc3c(cc2c1)Sc1c(ccc2ccccc12)N3` [Compound 14], the figure is 4.24; as for `c1ccc2nc3c(cc2c1)Sc1ccc2cccnc2c1N3` [Compound 11], 3.48.
Turning to `CN1c2nc3ccccc3cc2Sc2ccc3ncccc3c21` [Compound 10], the RM0 is 4.37.
Consider `c1ccc2nc3c(cc2c1)Sc1c(cnc2ccccc12)N3` [Compound 1, 7H-diquino[3,2-b;3′,4′-e]thiazine], for which the RM0 is given as 3.15.
The same measure, in the same setting: the value for `c1ccc2nc3c(cc2c1)Sc1ccc2ccccc2c1N3` [Compound 18] was 3.81.
`c1ccc2nc3c(cc2c1)Sc1c(ccc2ncccc12)N3` [Compound 5]: the RM0 is 3.72.
Take `CN1c2ccc3ccccc3c2Sc2cc3ccccc3nc21` [Compound 15]: the RM0 was 4.49.
Consider `c1ccc2nc3c(cc2c1)Sc1ccc2ncccc2c1N3` [Compound 9], for which the RM0 is 3.69.
Consider `C#CCN1c2ccc3ccccc3c2Sc2cc3ccccc3nc21` [Compound 17], for which the RM0 is 4.29.
Still for that read-out and setting: as for `CN1c2nc3ccccc3cc2Sc2ccc3ccccc3c21` [Compound 19], the figure is 4.18; as for `C#CCN1c2ccc3ncccc3c2Sc2cc3ccccc3nc21` [Compound 8], 3.96; as for `CN1c2cnc3ccccc3c2Sc2cc3ccccc3nc21` [Compound 2], 4.14.
The same measure, in the same setting: as for `C#CCN1c2nc3ccccc3cc2Sc2ccc3ccccc3c21` [Compound 21], the figure is 4.09; as for `CN1c2ccc3ncccc3c2Sc2cc3ccccc3nc21` [Compound 6], 4.24.

Still in this data set, the particulars now being: from RM0 by calibration logPTLC = 1.2838 RM0 + 0.2138.
Regarding `Clc1ccc(C(c2ccc(Cl)cc2)C(Cl)(Cl)Cl)cc1` [Standard V, p,p’-DDT, reference compound], the LogPTLC came to 6.24.
Same read-out and setting: as for `CC(=O)Nc1ccccc1` [Standard I, acetanilide, reference compound], the figure is 1.21.
Same read-out and setting: the value for `c1ccc2nc3c(cc2c1)Sc1c(ccc2ccccc12)N3` [Compound 14] was 5.69; that for `c1ccc2nc3c(cc2c1)Sc1ccc2cccnc2c1N3` [Compound 11] was 4.72; that for `C#CCN1c2ccc3ccccc3c2Sc2cc3ccccc3nc21` [Compound 17] was 5.76.
Still for that read-out and setting: as for `CN1c2nc3ccccc3cc2Sc2ccc3ccccc3c21` [Compound 19], the figure is 5.58.
With `C#CCN1c2ccc3ncccc3c2Sc2cc3ccccc3nc21` [Compound 8], the LogPTLC worked out at 5.34.

The same data set, now with this note: slope of RM = RM0 + b·C, acetone/TRIS buffer pH 7.4.
As to `C=CCN1c2nc3ccccc3cc2Sc2ccc3cccnc3c21` [Compound 13], the “b (slope)” value is reported as −0.0478.
Still for that read-out and setting: the value for `C=CCN1c2nc3ccccc3cc2Sc2ccc3ccccc3c21` [Compound 20, 14-allylquinonaphthothiazine] was −0.0548.
As to `C=CCN1c2cnc3ccccc3c2Sc2cc3ccccc3nc21` [Compound 3], the “b (slope)” value was −0.058.
Same read-out and setting: the value for `C=CCN1c2ccc3ncccc3c2Sc2cc3ccccc3nc21` [Compound 7] was −0.0534.
Consider `CN1c2nc3ccccc3cc2Sc2ccc3cccnc3c21` [Compound 12], for which the “b (slope)” value is −0.0576.
Consider `C#CCN1c2cnc3ccccc3c2Sc2cc3ccccc3nc21` [Compound 4], for which the “b (slope)” value is recorded as −0.0383.
Same read-out and setting: the value for `c1ccc2nc3c(cc2c1)Sc1c(ccc2ccccc12)N3` [Compound 14] was −0.0573.
For `c1ccc2nc3c(cc2c1)Sc1ccc2cccnc2c1N3` [Compound 11], the “b (slope)” value is reported as −0.0462.
The same measure, in the same setting: as for `CN1c2nc3ccccc3cc2Sc2ccc3ncccc3c21` [Compound 10], the figure is −0.0540; as for `c1ccc2nc3c(cc2c1)Sc1c(cnc2ccccc12)N3` [Compound 1, 7H-diquino[3,2-b;3′,4′-e]thiazine], −0.0383; as for `c1ccc2nc3c(cc2c1)Sc1ccc2ccccc2c1N3` [Compound 18], −0.0484.
On the same count and under the same terms, as for `c1ccc2nc3c(cc2c1)Sc1c(ccc2ncccc12)N3` [Compound 5], the figure is −0.0459; as for `CN1c2ccc3ccccc3c2Sc2cc3ccccc3nc21` [Compound 15], −0.0527; as for `c1ccc2nc3c(cc2c1)Sc1ccc2ncccc2c1N3` [Compound 9], −0.0498.
Same read-out and setting: the value for `C#CCN1c2ccc3ccccc3c2Sc2cc3ccccc3nc21` [Compound 17] was −0.0529.
For the molecule `CN1c2nc3ccccc3cc2Sc2ccc3ccccc3c21` [Compound 19], the “b (slope)” value was −0.0538.
On the same count and under the same terms, the value for `C#CCN1c2ccc3ncccc3c2Sc2cc3ccccc3nc21` [Compound 8] was −0.0539; that for `CN1c2cnc3ccccc3c2Sc2cc3ccccc3nc21` [Compound 2] was −0.0503; that for `C#CCN1c2nc3ccccc3cc2Sc2ccc3ccccc3c21` [Compound 21] was −0.0507.
On the same count and under the same terms, as for `CN1c2ccc3ncccc3c2Sc2cc3ccccc3nc21` [Compound 6], the figure is −0.0582.

The same data set, now with this note: standards I–V, slope of RM = RM0 + b·C.
As to `Clc1ccc(C(c2ccc(Cl)cc2)C(Cl)(Cl)Cl)cc1` [Standard V, p,p’-DDT, reference compound], the “-b” value was determined as 0.0564.
Same read-out and setting: as for `O=C(O)c1ccccc1` [Standard II, benzoic acid, reference compound], the figure is 0.0247.
On the same count and under the same terms, the value for `CC(=O)Nc1ccccc1` [Standard I, acetanilide, reference compound] was 0.0162.

Another data set deals with alpha-glucosidase.
Experiment: not given
On the set-up: method as in doi:10.1016/j.molstruc.2023.136856. Conditions: cited from earlier work.
For the molecule `c1ccc2nc3c(cc2c1)Sc1ccc2cccnc2c1N3` [Compound 11], the alpha-glucosidase activity inhibition result is given as “inhibited”.
As for `c1ccc2nc3c(cc2c1)Sc1c(cnc2ccccc12)N3` [Compound 1, 7H-diquino[3,2-b;3′,4′-e]thiazine], the alpha-glucosidase activity inhibition result is given as “inhibited”.
In the case of `c1ccc2nc3c(cc2c1)Sc1ccc2ncccc2c1N3` [Compound 9], the alpha-glucosidase activity inhibition result is given as “inhibited”.

Test system in a further data set: not given
Experiment: not given
On the set-up: method as in doi:10.1016/j.molstruc.2023.136856. The settings on record: cited from earlier work. The source holds these as a separate data set.
As to `c1ccc2nc3c(cc2c1)Sc1ccc2cccnc2c1N3` [Compound 11], the ion chelating effect entry was “strong”.
In the case of `c1ccc2nc3c(cc2c1)Sc1c(cnc2ccccc12)N3` [Compound 1, 7H-diquino[3,2-b;3′,4′-e]thiazine], the ion chelating effect result is “strong”.
Take `c1ccc2nc3c(cc2c1)Sc1ccc2ncccc2c1N3` [Compound 9]: the ion chelating effect entry is “strong”.
